US20210059959A1, “USE OF CANNABINOIDS IN THE TREATMENT OF MENTAL DISORDERS” (GW Pharma Limited, priority 2015, published 2021)

Test system: participants with schizophrenia or related psychotic disorder
Test: Brief Assessment of Cognition in Schizophrenia (BACS), double-blind placebo-controlled study of CBD as adjunctive therapy
Format: in vivo, human
Details: all patients
Procedure: Example 1 below describes the use of a highly purified cannabis extract comprising cannabidiol (CBD) in a human clinical trial. Example 1 describes data produced in a double-blind, randomised, placebo-controlled, parallel group study of highly purified CBD as adjunctive therapy in first line treatment of schizophrenia or related psychotic disorder.
An eight-week, multi-centre, double-blind, randomised, placebo-controlled, parallel group study was conducted with the aim to determine the efficacy, safety and tolerability of highly purified CBD as adjunctive therapy in first line treatment of schizophrenia or related psychotic disorder.
This study evaluated the efficacy of highly purified CBD compared with placebo on the participant's PANSS Total score, ‘P’, ‘N’, ‘G’, SANS and BACS scores.
Changes from baseline in PANSS scores (Total, ‘P’, ‘N’ and ‘G’), SANS and BACS were recorded at the start of the study (baseline) and at the end of treatment (after 6 weeks treatment with CBD or placebo).
For inclusion in the study participants were required to be male or female aged 18 to 65 years, diagnosed with schizophrenia or a related psychotic disorder (such as schizoaffective or schizophreniform disorder) as defined by the Diagnostic and Statistical Manual of Mental Disorders Version 4. Participants must have been treated for a minimum of four-weeks and be on a stable dose of their current antipsychotic medication. […] A PANSS score in excess of 60 infers that the patient has symptoms related to schizophrenia or related disorders.
The participants were randomised to one of two treatment groups which each consisted of 39 participants. Treatment was administered as either 5 ml CBD (100 mg/ml) oral solution to be taken twice daily or 5 ml matched placebo oral solution to be taken twice daily.
Brief Assessment of Cognition in Schizophrenia (BACS)
The BACS is an instrument used to assess the aspects of cognition found to be most impaired and most strongly correlated with outcome in participants with schizophrenia or related psychotic disorder. The BACS yields a high completion rate in participants with schizophrenia or related psychotic disorder.
The BACS consists of six domains: verbal memory; working memory; motor speed; verbal fluency; attention and speed information processing and executive functions. A score is obtained for each domain and a composite summary score is also calculated as the average of the scores from the six domains. An increase in score is indicative of an improvement in cognition.
This instrument was assessed at each assessment visit (Visits 1-4).

For C=C(C)[C@@H]1CCC(C)=C[C@H]1c1c(O)cc(CCCCC)cc1O [CBD, Cannabidiol], the “Change in baseline scores, BACS composite score” value (CBD adjunct, 6 weeks) was 3.5, the “Change in baseline scores, BACS sub-domain 1 Verbal memory” value (CBD adjunct, 6 weeks) was 2.1 and the “Change in baseline scores, BACS sub-domain 2 Working memory” value (CBD adjunct, 6 weeks) was 1.8. The “Change in baseline scores, BACS sub-domain 3 Motor speed” value (CBD adjunct, 6 weeks) was 6.2, the “Change in baseline scores, BACS sub-domain 4 Verbal fluency” value (CBD adjunct, 6 weeks) was 4.3 and the “Change in baseline scores, BACS sub-domain 5 Attention and speed information processing” value (CBD adjunct, 6 weeks) was 4.4. The “Change in baseline scores, BACS sub-domain 6 Executive function” value (CBD adjunct, 6 weeks) was 2.0, the “Change in baseline scores, BACS sub-domain 3 Motor speed: difference” value (CBD vs placebo, P = 0.0439) was “(4.2)” and the “Change in baseline scores, BACS composite score: difference” value (CBD vs placebo, P = 0.0677) was “(1.3)”. For the same compound, the “Change in baseline scores, BACS sub-domain 6 Executive function: difference” value (CBD vs placebo, P = 0.0682) was “(1.4)”, the “Change in baseline scores, BACS sub-domain 2 Working memory: difference” value (CBD vs placebo, P = 0.1414) was “(1.0)” and the “Change in baseline scores, BACS sub-domain 5 Attention and speed information processing: difference” value (CBD vs placebo, P = 0.5915) was “(0.9)”. For the same compound, the “Change in baseline scores, BACS sub-domain 4 Verbal fluency: difference” value (CBD vs placebo, P = 0.8059) was “(0.4)” and the “Change in baseline scores, BACS sub-domain 1 Verbal memory: difference” value (CBD vs placebo, P = 0.9933) was “(0.1)”.
